Data on two compounds can be found in publication PMC8623467, “Biochemical Characterization of Recombinant Isocitrate Dehydrogenase and Its Putative Role in the Physiology of an Acidophilic Micrarchaeon” (Microorganisms, 2021).

The test system of the experiment is T1, MhIDH6x His.
T1 construct: gene icd2; full-length; N-terminal 6xHis tag kept (primer: MHHHHHHEEQKKESIS...); C-terminus AIKSA from primer; pBAD202, E. coli Rosetta pRARE; Ni-IMAC and SEC; homodimer only modelled
Description: NADPH formation at […] nm, Michaelis-Menten fit. The format is biochemical, Candidatus Micrarchaeum harzensis. As to conditions: 100 mM TRIS/HCl pH 8.0, 28 °C, Mg2+ (5 mM MgCl2 standard mixture).

The structures appear in SMILES notation.

For the compound `O=C(O)CC(C(=O)O)C(O)C(=O)O` (racemic) [DL-isocitrate], for the setting “20 mM NADP+ (Figure 4 legend)”, the Km (commonly the concentration of substrate that gives half-maximal velocity) was found to be 53 ± 5.63 µM. In the case of `NC(=O)c1ccc[n+]([C@@H]2O[C@H](COP(=O)(O)OP(=O)(O)OC[C@H]3O[C@@H](n4cnc5c(N)ncnc54)[C@H](OP(=O)(O)O)[C@@H]3O)[C@@H](O)[C@H]2O)c1` [NADP^+], the Michaelis-Menten constant (Km) (1 mM DL-isocitrate) worked out at 1940 ± 120 µM.
